Measurements reported in US8580776B2, “Compositions and methods for treating neurodegenerating diseases” (The Board of Trustees of the University of Illinois, priority 2007, dated 2013).
“Also recorded” adds a separate entry of the source.

How the values were obtained:
EAE mice [1] = experiment: L-DOPS, Atomoxetine and combination in EAE mice (Example 13); type: in vivo; settings: from day 17 after booster MOG, tri-weekly, L-DOPS 400 mg/kg s.c. plus 125 mg/kg bensazeride i.p., Atomoxetine 20 mg/kg
Text: (§1) To assess disease severity, clinical signs were scored as follows: 0 indicated no clinical signs, 1 indicated a limp tail, 2 indicated an impaired righting of the animal, 3 indicated paresis of one hind limb, 4 indicated paresis of two hind limbs, and 5 indicated the death of the animal.
To test whether increasing NA derived from the NA precursor L-DOPS in combination with a NA reuptake inhibitor could provide benefit in EAE, C57B16 mice were immunized with MOG35-55 peptide using standard procedures as described in Example 9.

EAE mice [2] = experiment: L-DOPS treatment of EAE mice (Example 10); type: in vivo
Procedure: To test whether increased NA derived from the NA precursor L-DOPS could provide benefits in EAE, C57B16 mice were immunized with MOG35-55 peptide using standard procedures. At day 29 (FIG. 11A, arrow) after the booster MOG, 6 mice received daily injections of L-DOPS (using an intermediate dose of 200 mg/kg s.c.; plus 125 mg/kg bensazeride i.p. to block peripheral conversion to NA); control mice received saline. In the saline group, 4/6 mice were ill on day 29, and by day 36 all 6 were ill (FIG. 11A); the average clinical score increased from 1.3±0.4 (mean±se) on day 29 to 2.3±0.2 on day 37 (FIG. 11B). […] During treatment, scores of 2 of the 4 mice improved, and the average score decreased from 1.5±0.5 on day 29 to 1.2±0.4 on day 38.
as §1

[3] = system: oligodendrocyte progenitor cells (OPCs); experiment: Oligosphere / OPC maturation by immunostaining; type: cell-based, mouse
Procedure: Initial studies were carried out to identify treatments that influence OLG maturation using primary oligodendrocyte progenitor cells (OPCs) from E13 mouse pups. The cells were isolated as E13 neurospheres, and were shifted to OLG commitment (Oligospheres) by culture in PDGFα and bFGF. E13 Oligospheres were cultured on polylysine coated slides in media (containing bFGF and PDGFα) in the presence or absence of 25 μM NA. After 2 days the cells were fixed and stained with antibody to MBP (FIGS. 12A and 12B).
Further studies were carried out in which the oligospheres were cultured on polylysine coated slides in media (containing bFGF and PDGFα) in the presence or absence of 20 μM NA. After 24 hours the cells were fixed and stained with antibodies for PDGFRa, Oligodendrocyte Marker O4 and PLP (FIGS. 13 and 14).

P1 OPCs = experiment: QPCR of myelin genes in P1 OPCs treated with NA; type: cell-based; settings: NA versus saline
Procedure: Additional studies were carried out in which QPCR analysis was performed for BMPs, BMP antagonists and myelin genes on P1 OPCs treated with saline or NA. The QPCR condition and primers are as described in Example 3. For QPCR experiments, RNA levels were calculated from QPCR take-off points, normalized for RNA values obtained for GDH; the average value for the vehicle treated RNA levels was set to 1.0. Comparisons were made using unpaired T-test, and P values <0.05 were considered to be significant. (FIGS. 15A and 15B).

mouse neuronal N2A cells = experiment: NEP activity in N2A cells incubated with NA; type: cell-based; settings: N2A cells incubated with NA for 24 hr
Procedure: Comparative real time RT-PCR (or quantitative PCR, QPCR) was used to measure mRNA levels of the Aβ degrading enzymes neprilysin (Nep) and insulin degrading enzyme (IDE) in brain samples from vehicle and DSP4 treated mice (FIG. 4A). Neprilysin activity in brain extracts was assayed by monitoring proteolysis of a fluorescent substrate (FIG. 4B). To assess the effects of dose, mouse neuronal N2A cells were incubated with increasing does of NA for 24 hr after which NEP activity was measured (FIG. 4D, data is mean±sd and is from n=3 samples).
In the results shown in FIG. 4D, mouse neuronal N2A cells were incubated with NA for 24 hr after which NEP activity was measured. Data is mean±sd and is from n=3 samples.

BMP4 = experiment: QPCR of BMP4 mRNA in primary astrocytes; type: cell-based
Procedure: (§2) As shown in FIGS. 12C and 12D, BMP2 and BMP4 mRNA levels were decreased in astrocytes treated with NA. Data is mean±sd of n=2-3 experiments, and normalized to values for β-tubulin measured in the same samples.
(§3) Further studies were carried out in which primary astrocytes were treated with 30 μM NA for 24 hours then mRNA levels of bone morphogenic proteins BMP2 and BMP4, Noggin, Gremlin, Follistatin and BAMBI were measured by QPCR (FIG. 16A). The results confirmed that BMP4 mRNA levels were decreased, whereas the Noggin mRNA levels were increased, in NA treated primary astrocytes (FIG. 16A).

primary microglia = experiment: Microglial phagocytosis of FITC-labeled Aβ1-42 (FACS); type: cell-based, mouse; settings: 10 nM to 10 μM, 4 hr, FITC-Aβ1-42 150 μM
Procedure: The ability of NA to modulate Aβ phagocytosis, another means by which amyloid plaque burden is regulated, was tested. Primary microglia were incubated with indicated concentrations of NA (FIG. 5A) or the β-AR agonist isoproterenol (FIG. 5B), in the presence of FITC-labeled Aβ1-42 (150 μM). After 4 hr, intracellular levels of Aβ were determined as described below.
Primary murine microglial cells were generated at P1 according to standard protocols. Briefly, frontal cortices of one day old C57BL6 mice were used to prepare mixed glial cultures in T75 cm^2 flasks in DMEM containing 10% FCS and antibiotics (100 IU/mL of penicillin and 100 ug/mL of streptomycin; Sigma), and incubated at 37° C. in a humidified atmosphere containing 5% CO2. Microglia were detached from the astrocyte monolayer by gentle shaking 11-13 days after the dissection, and cultures were 95-98% Mac1 positive.
FACS analysis was used to quantify microglial phagocytosis of Aβ1-42. […] Fluorescent signals due to cell adherent Aβ were eliminated by resuspending an aliquot of cells in an equal volume of 1 mg trypan blue/mL (Merck, Darmstadt, Germany) acetate buffer to quench extracellular fluorescence. The mean fluorescence intensity (MFI) was measured on a FACScan (Becton Dickinson, Mountain View, Calif.) equipped with an argon-ion laser (excitation wavelength at 488 nm, laser power 300 mW) and a band pass filter of 530 nm. […]

BMP2 = experiment: QPCR of BMP2 mRNA in primary astrocytes; type: cell-based; settings: 100 μM NA, 24 hr
Text: as §2

Noggin = Noggin mRNA (QPCR) and protein staining in primary astrocytes; type: cell-based
Procedure: as §3

primary neurons = experiment: Aβ-induced neuronal damage in primary neurons (LDH release, FJ staining); type: cell-based; settings: LDH release and FJ staining
Procedure: The levels of neuronal damage, using LDH release as a neuronal damage marker, were measured as a percentage of control. C: control; Aβ: primary neurons treated with Aβ; Aβ+NA: primary neurons treated Aβ and NA; and Aβ+dbcAMP: primary neurons treated with Aβ and dbcAMP. […] The staining intensity was quantified as a percentage of control as illustrated in the graph in FIG. 9B.

CNCC[C@@H](Oc1ccccc1C)c1ccccc1 [Atomoxetine]
clinical scores / EAE symptoms (EAE mice [1]): no effect on clinical scores | clinical scores / EAE symptoms (EAE mice [1]; listed as Axtomoxtine): limited benefit

N[C@H](C(=O)O)[C@H](O)c1ccc(O)c(O)c1 [L-DOPS, (−)-threo-3-(3,4-dihydroxyphenyl)-L-serine]
clinical scores / EAE symptoms (EAE mice [1]): Benefits to EAE were seen; also recorded: stabilized scores | clinical scores in EAE mice (EAE mice [2]; FIGS. 11A-11C): prevents the worsening of clinical scores | ill mice whose scores improved during treatment (EAE mice [2]; L-DOPS group): 2 of the 4 | incidence of disease during treatment (EAE mice [2]; L-DOPS group after day 29, saline all 6 ill by day 36): did not further increase | mice ill on day 29 (EAE mice [2]; L-DOPS group, first day of treatment): 4/6 | average clinical score, day 38 (EAE mice [2]; daily L-DOPS 200 mg/kg s.c. plus 125 mg/kg bensazeride i.p. from day 29, saline 2.3±0.2 on day 37): 1.2±0.4 | average clinical score, day 29 (EAE mice [2]; first day of L-DOPS 200 mg/kg s.c. plus 125 mg/kg bensazeride i.p., mean±se): 1.5±0.5

NC[C@H](O)c1ccc(O)c(O)c1 [NA, noradrenaline]
OPC maturation, PDGFRa, O4 and PLP staining ([3]; 20 μM NA, 24 hours): accelerated OPC maturation | OPC maturation, PDGFa, O4 and PLP staining (figure legends) ([3]; 30 μM NA, 24 hours): induces more processes and greater a number of cells; also recorded: increased OPC maturation | OPC maturation, MBP staining ([3]; E13 oligospheres, 25 μM NA, 2 days): accelerated OPC maturation | OPC maturation by Olig1, Olig2, GALc and CGT mRNA levels (P1 OPCs): increases OPC maturation | NEP activity in cell culture (mouse neuronal N2A cells): increases NEP activity | BMP4 mRNA levels (BMP4; 30 μM NA, 24 hours): decreased | BMP4 mRNA levels (BMP4; 100 μM NA, 24 hr): decreased | accumulation of fluorescently tagged Aβ1-42 (intracellular Aβ uptake) (primary microglia): dose dependently increased | BMP2 mRNA levels (BMP2): decreased | Noggin protein expression (antibody staining) (Noggin; NA-treated primary astrocytes): increased Noggin expression | Noggin mRNA levels (Noggin; primary astrocytes, 30 μM NA, 24 hours): increased | Aβ induced damage in primary neurons (primary neurons): reduces Aβ induced damage

CC(C)NCC(O)c1ccc(O)c(O)c1 (stereo not shown) [isoproterenol]
accumulation of fluorescently tagged Aβ1-42 (intracellular Aβ uptake) (primary microglia): dose dependently increased
